US20230312601A1, “THIAZOLO[5,4-B]PYRIDINE MALT-1 INHIBITORS” (AbbVie Inc., priority 2022, published 2023)

Experiments:
[1] = test system: male Sprague-Dawley rats; assay: Cardiovascular Assay in anesthetized rats; type: in vivo; details: rat; for HR (%) / MAP (%) / dP/dt@50 (%): change from vehicle; for Drug (μg/mL SEM): plasma at end of infusion
Experimental: The following cardiovascular assay was conducted using male Sprague-Dawley rats that were anesthetized with Inactin (thiobutabarbital), instrumented (catheterized both femoral artery and vein; catheterize left ventricular) and allowed to stabilize. Following a 30-minute baseline period, each compound was infused at low, medium, and high doses/30 minutes. Plasma samples were taken at the end of each dose infusion. If, at any point, the mean arterial pressure (MAP) of an animal decreased below 70 mmHg, the infusion was immediately stopped, a final blood sample was taken, and hemodynamic data for that animal was removed from the group average for all subsequent time points. A 15% change from vehicle for MAP or heart rate (HR), respectively, is considered biologically relevant. A 20% change from vehicle for dP/dt@50 is considered biologically relevant.

[2] = test system: OCI-LY3 IL6; assay: MALT-1 Cell IL-6 AlphaLISA Assay; type: cell-based; details: Homo sapiens; OCI-LY3 cells, 48 hours incubation; read-out: OCI-LY3 IL6 48 hour Inhibition EC50
Procedure, shortened: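 MALT-1-dependent ABC-DLBCL OCI-LY3 cells were seeded at 50,000 cells/mL onto compound (30 μM to 1.5 nM) and incubated 48 hours at 37° C. Secreted human IL-6 in the medium was measured by AlphaLISA with acceptor beads, biotinylated anti-IL-6 antibody and streptavidin donor beads.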

[3] = target: human MALT-1 protein (Homo sapiens (Human), UniProt Q9UDY8); assay: MALT-1 Biochemical Assay (Quench-FRET enzyme assay); details: human MALT-1 6 nM, substrate 2 μM, 40 min preincubation
Procedure, shortened: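 Human MALT-1 (6 nM) preincubated 40 min at room temperature with compound in pH 7.5 HEPES buffer containing 0.8 M sodium citrate and 2 mM DTT. Then 2 μM quenched TAMRA/QSY7 peptide substrate added for 60 min. Cleavage read by fluorescence (Ex 535/Em 590); EC50 is half-maximal inhibition of protease activity.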

[4] = test system: CYP 3A4 mRNA; assay: CYP3A4 Induction Assay (qPCR, human hepatocytes); type: in vitro ADME; details: 10 μM compound, relative to rifampicin 10 μM
Procedure, shortened: (§1)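 Cryopreserved human hepatocytes (60,000 cells/well), overlaid with Geltrex, were dosed at 10 μM final, with omeprazole, rifampicin and probenecid as controls. RNA was isolated on day 3. CYP3A4 mRNA was measured by TaqMan RT-qPCR with GAPDH as the reference gene.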

[5] = test system: CYP3A4 mRNA; assay: CYP3A4 Induction Assay (qPCR, human hepatocytes); type: in vitro ADME; details: cryopreserved human hepatocytes (plated), 10 μM compound, mRNA fold over vehicle (0.1% DMSO)
Procedure, shortened: as §1

human MALT-1 protein, sequence (Q9UDY8 whole entry): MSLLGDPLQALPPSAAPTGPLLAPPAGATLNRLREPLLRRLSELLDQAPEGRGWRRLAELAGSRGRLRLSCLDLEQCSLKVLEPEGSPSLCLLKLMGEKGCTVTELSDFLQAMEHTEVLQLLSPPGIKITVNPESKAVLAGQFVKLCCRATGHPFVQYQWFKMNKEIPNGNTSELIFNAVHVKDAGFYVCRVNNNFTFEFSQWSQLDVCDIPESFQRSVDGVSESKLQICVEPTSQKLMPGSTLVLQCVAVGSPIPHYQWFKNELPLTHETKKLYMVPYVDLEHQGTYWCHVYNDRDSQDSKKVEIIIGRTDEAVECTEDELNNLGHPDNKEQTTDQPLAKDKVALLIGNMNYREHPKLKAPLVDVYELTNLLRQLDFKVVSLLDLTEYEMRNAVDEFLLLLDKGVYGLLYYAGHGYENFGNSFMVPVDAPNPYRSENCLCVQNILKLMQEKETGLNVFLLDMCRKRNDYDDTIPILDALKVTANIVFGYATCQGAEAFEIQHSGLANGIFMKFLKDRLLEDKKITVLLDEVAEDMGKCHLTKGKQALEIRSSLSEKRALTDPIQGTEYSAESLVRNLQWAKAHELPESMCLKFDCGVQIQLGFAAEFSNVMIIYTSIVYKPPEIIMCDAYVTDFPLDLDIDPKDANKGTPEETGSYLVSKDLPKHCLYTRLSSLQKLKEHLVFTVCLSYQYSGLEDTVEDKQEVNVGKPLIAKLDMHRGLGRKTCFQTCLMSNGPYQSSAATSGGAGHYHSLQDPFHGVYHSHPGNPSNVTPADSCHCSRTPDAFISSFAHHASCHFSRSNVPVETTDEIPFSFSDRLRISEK

EC50 [2] [nM]	EC50 [3] [nM]	CYP3A4 % of positive control (%) [4]	fold induction at 1 day, 10 µM [5]	SMILES	HR (%) ([1]; dose 3 mg/kg)	MAP (%) ([1]; dose 3 mg/kg)	dP/dt@50 (%) ([1]; dose 3 mg/kg)	HR (%) ([1]; dose 10 mg/kg)	MAP (%) ([1]; dose 10 mg/kg)	dP/dt@50 (%) ([1]; dose 10 mg/kg)	HR (%) ([1]; dose 30 mg/kg)	MAP (%) ([1]; dose 30 mg/kg)	dP/dt@50 (%) ([1]; dose 30 mg/kg)	Drug (μg/mL SEM) ([1]; dose 3 mg/kg) [µg/mL]	Drug (μg/mL SEM) ([1]; dose 10 mg/kg) [µg/mL]	Drug (μg/mL SEM) ([1]; dose 30 mg/kg) [µg/mL]
200	91	(5.46) %	1.45	CO[C@@H](C)c1c(Nc2ccc([C@H](N(C)C(=O)C3CCS(=O)(=O)CC3)C(F)(F)F)cc2)cnc2sc(C)nc12 [Example 1, N-methyl-1,1-dioxo-N-{(1S)-2,2,2-trifluoro-1-[4-({7-[(1S)-1-methoxyethyl]-2-methyl[1,3]thiazolo[5,4-b]pyridin-6-yl}amino)phenyl]ethyl}-1λ^6-thiane-4-carboxamide]	−4	−5	5	−8	−8	12	−17	−16	11	2.32 ± 0.12	9.36 ± 0.41	24.00 ± 1.63
140	110	(1.75) %	1.12	CO[C@H](c1c(Nc2ccc([C@H](N(C)C(=O)C3CCS(=O)(=O)CC3)C(F)(F)F)cc2)cnc2sc(C)nc12)C(F)F [Example 3, N-{(1S)-1-[4-({7-[(1R)-2,2-difluoro-l-methoxyethyl]-2-methyl[1,3]thiazolo[5,4-b]pyridin-6-yl}amino)phenyl]-2,2,2-trifluoroethyl} -N-methyl-1,1-dioxo-1λ^6-thiane-4-carboxamide]	−1	1	0	−3	0	3	−12	−13	−3	2.18 ± 0.10	8.34 ± 0.55	22.87 ± 2.67
950	198	(−0.162) %	0.985	CO[C@@H](C)c1c(Nc2ccc([C@H](N(C)C(=O)C3CCN(C(C)=O)CC3)C(F)(F)F)cc2)cnc2sc(C)nc12 [Example 19, 1-acetyl-N-methyl-N-{(1S)-2,2,2-trifluoro-1-[4-({7-[(1S)-1-methoxyethyl]-2-methyl[1,3]thiazolo [5,4-b]pyridin-6-yl}amino)phenyl]ethyl}piperidine-4-carboxamide]	−5	0	−5	−5	−1	−5	−9	−2	−3	2.51 ± 0.29	8.92 ± 0.73	25.13 ± 0.98
180	162	(20.2) %	2.72	CO[C@@H](c1c(Nc2ccc([C@H](N(C)C(=O)C3CCN(C(C)=O)CC3)C(F)(F)F)cc2)cnc2sc(C)nc12)C(F)F [Example 33, 1-acetyl-N-{(1S)-1-[4-({7-[(1S)-2,2-difluoro-1-methoxyethyl]-2-methyl[1,3]thiazolo [5,4-b]pyridin-6-yl}amino)phenyl]-2,2,2-trifluoroethyl}-N-methylpiperidine-4-carboxamide]	−5	−5	1	−7	−5	1	−8	−9	7	2.52 ± 0.39	11.20 ± 0.60	34.10 ± 1.95
